Here are results for 29 molecules from patent publication US8637509B2, “Azaindazoles” (GlaxoSmithKline LLC, priority 2010, dated 2014).

In the test the target is T1, EZH2 (Homo sapiens, UniProt Q15910).
T1 construct: GRITS37108
T1 sequence (Q15910 whole entry): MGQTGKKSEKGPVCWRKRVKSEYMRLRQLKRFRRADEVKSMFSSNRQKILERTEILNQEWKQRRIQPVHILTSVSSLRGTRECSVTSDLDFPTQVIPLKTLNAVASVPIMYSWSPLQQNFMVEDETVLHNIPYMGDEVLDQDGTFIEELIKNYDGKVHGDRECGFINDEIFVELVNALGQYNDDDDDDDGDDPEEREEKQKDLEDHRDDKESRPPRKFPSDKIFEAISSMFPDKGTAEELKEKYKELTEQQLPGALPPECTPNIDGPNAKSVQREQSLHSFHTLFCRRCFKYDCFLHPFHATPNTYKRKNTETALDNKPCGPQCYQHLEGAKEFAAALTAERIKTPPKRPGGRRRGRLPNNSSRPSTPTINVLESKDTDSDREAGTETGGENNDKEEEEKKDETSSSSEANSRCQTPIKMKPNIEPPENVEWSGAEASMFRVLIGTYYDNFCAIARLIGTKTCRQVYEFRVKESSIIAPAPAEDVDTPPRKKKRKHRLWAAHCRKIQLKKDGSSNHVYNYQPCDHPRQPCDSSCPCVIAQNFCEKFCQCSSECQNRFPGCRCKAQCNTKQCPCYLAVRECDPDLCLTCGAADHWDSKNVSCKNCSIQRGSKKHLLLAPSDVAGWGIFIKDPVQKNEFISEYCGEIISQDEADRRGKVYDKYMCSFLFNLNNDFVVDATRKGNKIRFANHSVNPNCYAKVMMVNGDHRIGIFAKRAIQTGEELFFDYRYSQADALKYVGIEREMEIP
T1 sequence (O75530 whole entry partner): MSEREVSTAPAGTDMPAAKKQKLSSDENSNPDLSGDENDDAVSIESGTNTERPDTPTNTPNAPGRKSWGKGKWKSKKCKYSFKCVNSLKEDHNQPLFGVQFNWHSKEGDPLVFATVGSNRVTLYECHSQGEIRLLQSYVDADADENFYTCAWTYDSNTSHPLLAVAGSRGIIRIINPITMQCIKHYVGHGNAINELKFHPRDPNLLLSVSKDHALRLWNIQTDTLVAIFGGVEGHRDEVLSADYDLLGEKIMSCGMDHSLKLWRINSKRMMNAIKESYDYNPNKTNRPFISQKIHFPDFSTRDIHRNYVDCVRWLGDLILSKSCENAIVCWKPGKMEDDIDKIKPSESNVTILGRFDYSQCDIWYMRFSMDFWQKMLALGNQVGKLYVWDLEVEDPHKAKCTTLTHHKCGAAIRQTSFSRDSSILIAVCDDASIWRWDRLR
T1 sequence (Q15022 whole entry partner): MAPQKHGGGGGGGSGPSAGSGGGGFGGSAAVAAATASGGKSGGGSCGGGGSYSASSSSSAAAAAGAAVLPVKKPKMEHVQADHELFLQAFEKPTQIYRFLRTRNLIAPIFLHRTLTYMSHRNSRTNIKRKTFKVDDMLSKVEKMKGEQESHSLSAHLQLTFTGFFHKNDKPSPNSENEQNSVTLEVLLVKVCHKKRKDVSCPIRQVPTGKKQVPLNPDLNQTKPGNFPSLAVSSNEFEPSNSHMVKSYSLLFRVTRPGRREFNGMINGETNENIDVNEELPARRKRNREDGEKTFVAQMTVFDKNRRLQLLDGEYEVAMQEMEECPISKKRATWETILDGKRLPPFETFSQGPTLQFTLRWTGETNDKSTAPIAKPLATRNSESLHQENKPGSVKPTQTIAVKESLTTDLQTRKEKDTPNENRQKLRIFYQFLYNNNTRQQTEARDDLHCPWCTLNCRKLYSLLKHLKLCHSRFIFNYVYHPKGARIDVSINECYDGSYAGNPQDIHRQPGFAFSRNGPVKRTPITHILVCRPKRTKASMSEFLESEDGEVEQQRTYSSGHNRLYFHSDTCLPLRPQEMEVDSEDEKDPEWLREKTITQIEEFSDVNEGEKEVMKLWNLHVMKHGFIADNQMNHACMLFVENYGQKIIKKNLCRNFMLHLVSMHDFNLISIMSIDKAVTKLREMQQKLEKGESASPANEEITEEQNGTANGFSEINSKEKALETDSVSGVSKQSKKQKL
As to the kind of experiment: EZH2 methyltransferase SPA assay (3H-SAM, Hela nucleosomes). The class given is biochemical. The following applies: read-out: IC50.
A word on the IC50: it is the concentration that inhibits the measured activity by half. As to `Cc1cc(C(F)(F)F)c(CNC(=O)c2cc(C3CC3)nc3c2cnn3C(C)C)c(=O)[nH]1` [Ex 23, 6-Cyclopropyl-1-(1-methylethyl)-N-{[6-methyl-2-oxo-4-(trifluoromethyl)-1,2-dihydro-3-pyridinyl]methyl}-1H-pyrazolo[3,4-b]pyridine-4-carboxamide], the IC50 amounted to 1430 nM. `Cc1cc(C)c(CNC(=O)c2cc(N(C)C)nc3c2cnn3C(C)C)c(=O)[nH]1` [Ex 24, 6-(Dimethylamino)-N-[(4,6-dimethyl-2-oxo-1,2-dihydro-3-pyridinyl)methyl]-1-(1-methylethyl)-1H-pyrazolo[3,4-b]pyridine-4-carboxamide]: the IC50 was found to be 873 nM. For the molecule `Cc1cc(C)c(CNC(=O)c2cc(N3CCCCC3)nc3c2cnn3C(C)C)c(=O)[nH]1` [Ex 25, N-[(4,6-Dimethyl-2-oxo-1,2-dihydro-3-pyridinyl)methyl]-1-(1-methylethyl)-6-(1-piperidinyl)-1H-pyrazolo[3,4-b]pyridine-4-carboxamide], the IC50 is 685 nM. In the case of `Cc1cc(C)c(CNC(=O)c2cc(N3CCOCC3)nc3c2cnn3C(C)C)c(=O)[nH]1` [Ex 26, N-[(4,6-Dimethyl-2-oxo-1,2-dihydro-3-pyridinyl)methyl]-1-(1-methylethyl)-6-(4-morpholinyl)-1H-pyrazolo[3,4-b]pyridine-4-carboxamide], the IC50 stood at 673 nM. In the case of `Cc1cc(C)c(CNC(=O)c2cc(-c3ccc(N4CCN(C)CC4)nc3)nc3c2c(C)nn3C(C)C)c(=O)[nH]1` [Ex 27, N-[(4,6-Dimethyl-2-oxo-1,2-dihydro-3-pyridinyl)methyl]-3-methyl-1-(1-methylethyl)-6-[6-(4-methyl-1-piperazinyl)-3-pyridinyl]-1H-pyrazolo[3,4-b]pyridine-4-carboxamide], the IC50 came to 24 nM.

In the case of `Cc1cc(C)c(CNC(=O)c2cc(N3CCNCC3)nc3c2cnn3C(C)C)c(=O)[nH]1` [Ex 28, N-[(4,6-Dimethyl-2-oxo-1,2-dihydro-3-pyridinyl)methyl]-1-(1-methylethyl)-6-(1-piperazinyl)-1H-pyrazolo[3,4-b]pyridine-4-carboxamide], the IC50 came to 348 nM. Regarding `Cc1cc(C)c(CNC(=O)c2cc(C#CC(C)(C)O)nc3c2cnn3C(C)C)c(=O)[nH]1` [Ex 29, N-[(4,6-Dimethyl-2-oxo-1,2-dihydro-3-pyridinyl)methyl]-6-(3-hydroxy-3-methyl-1-butyn-1-yl)-1-(1-methylethyl)-1H-pyrazolo[3,4-b]pyridine-4-carboxamide], the concentration for half-maximal inhibition (IC50) was determined as 234 nM. Regarding `Cc1cc(C)c(CNC(=O)c2cc(-c3ccc4[nH]nc(C)c4c3)nc3c2cnn3C(C)C)c(=O)[nH]1` [Ex 30, N-[(4,6-Dimethyl-2-oxo-1,2-dihydro-3-pyridinyl)methyl]-1-(1-methylethyl)-6-(3-methyl-1H-indazol-5-yl)-1H-pyrazolo[3,4-b]pyridine-4-carboxamide], the IC50 turned out to be 154 nM. As to `Cc1cc(C)c(CNC(=O)c2cc(C#Cc3ccccc3)nc3c2cnn3C(C)C)c(=O)[nH]1` [Ex 31, N-[(4,6-Dimethyl-2-oxo-1,2-dihydro-3-pyridinyl)methyl]-1-(1-methylethyl)-6-(phenylethynyl)-1H-pyrazolo[3,4-b]pyridine-4-carboxamide], the IC50 turned out to be 232 nM. As to `Cc1cc(C)c(CNC(=O)c2cc(C#Cc3ccncc3)nc3c2cnn3C(C)C)c(=O)[nH]1` [Ex 33, N-[(4,6-Dimethyl-2-oxo-1,2-dihydro-3-pyridinyl)methyl]-1-(1-methylethyl)-6-(4-pyridinylethynyl)-1H-pyrazolo[3,4-b]pyridine-4-carboxamide], the IC50 was determined as 70 nM. Regarding `Cc1cc(C)c(CNC(=O)c2cc(NCc3ccccc3)nc3c2cnn3C(C)C)c(=O)[nH]1` [Ex 35, N-[(4,6-Dimethyl-2-oxo-1,2-dihydro-3-pyridinyl)methyl]-1-(1-methylethyl)-6-[(phenylmethyl)amino]-1H-pyrazolo[3,4-b]pyridine-4-carboxamide], the IC50 was 673 nM. Next, `Cc1cc(C)c(CNC(=O)c2cc(C(C)C)nc3c2cnn3C(C)C)c(=O)[nH]1` [Ex 37, N-[(4,6-Dimethyl-2-oxo-1,2-dihydro-3-pyridinyl)methyl]-1,6-bis(1-methylethyl)-1H-pyrazolo[3,4-b]pyridine-4-carboxamide]: 1100 nM; `Cc1cc(C)c(CNC(=O)c2cc(-c3ccccc3)nc3c2cnn3C(C)C)c(=O)[nH]1` [Ex 38, N-[(4,6-Dimethyl-2-oxo-1,2-dihydro-3-pyridinyl)methyl]-1-(1-methylethyl)-6-phenyl-1H-pyrazolo[3,4-b]pyridine-4-carboxamide]: 392 nM. Consider `Cc1cc(C)c(CNC(=O)c2cc(-c3ccc(N(C)C)nc3)nc3c2cnn3C(C)C)c(=O)[nH]1` [Ex 41, 6-[6-(Dimethylamino)-3-pyridinyl]-N-[(4,6-dimethyl-2-oxo-1,2-dihydro-3-pyridinyl)methyl]-1-(1-methylethyl)-1H-pyrazolo[3,4-b]pyridine-4-carboxamide], for which the IC50 worked out at 86 nM.

On to `CNS(=O)(=O)c1ccc(-c2cc(C(=O)NCc3c(C)cc(C)[nH]c3=O)c3cnn(C(C)C)c3n2)cc1` [Ex 42, N-[(4,6-Dimethyl-2-oxo-1,2-dihydro-3-pyridinyl)methyl]-6-{4-[(methylamino)sulfonyl]phenyl}-1-(1-methylethyl)-1H-pyrazolo[3,4-b]pyridine-4-carboxamide], for which the IC50 was found to be 56 nM. Next, `Cc1cc(C)c(CNC(=O)c2cc(-c3ccc(N)cc3)nc3c2cnn3C(C)C)c(=O)[nH]1` [Ex 43, 6-(4-Aminophenyl)-N-[(4,6-dimethyl-2-oxo-1,2-dihydro-3-pyridinyl)methyl]-1-(1-methylethyl)-1H-pyrazolo[3,4-b]pyridine-4-carboxamide]: 204 nM; `CC(=O)Nc1ccc(-c2cc(C(=O)NCc3c(C)cc(C)[nH]c3=O)c3cnn(C(C)C)c3n2)cc1` [Ex 44, 6-[4-(acetylamino)phenyl]-N-[(4,6-dimethyl-2-oxo-1,2-dihydro-3-pyridinyl)methyl]-1-(1-methylethyl)-1H-pyrazolo[3,4-b]pyridine-4-carboxamide]: 74 nM; `Cc1cc(C)c(CNC(=O)c2cc(-c3cccc(N)c3)nc3c2cnn3C(C)C)c(=O)[nH]1` [Ex 45, 6-(3-aminophenyl)-N-[(4,6-dimethyl-2-oxo-1,2-dihydro-3-pyridinyl)methyl]-1-(1-methylethyl)-1H-pyrazolo[3,4-b]pyridine-4-carboxamide]: 248 nM.

On to `CNC(=O)c1ccc(-c2cc(C(=O)NCc3c(C)cc(C)[nH]c3=O)c3cnn(C(C)C)c3n2)cc1` [Ex 46, N-[(4,6-Dimethyl-2-oxo-1,2-dihydro-3-pyridinyl)methyl]-6-{4-[(methylamino)carbonyl]phenyl}-1-(1-methylethyl)-1H-pyrazolo[3,4-b]pyridine-4-carboxamide], for which the IC50 came out at 128 nM. Then `CC(=O)Nc1cccc(-c2cc(C(=O)NCc3c(C)cc(C)[nH]c3=O)c3cnn(C(C)C)c3n2)c1` [Ex 47, 6-[3-(Acetylamino)phenyl]-N-[(4,6-dimethyl-2-oxo-1,2-dihydro-3-pyridinyl)methyl]-1-(1-methylethyl)-1H-pyrazolo[3,4-b]pyridine-4-carboxamide], with 88 nM; and `Cc1cc(C)c(CNC(=O)c2cc(-c3c[nH]c(=O)[nH]c3=O)nc3c2cnn3C(C)C)c(=O)[nH]1` [Ex 48, N-[(4,6-Dimethyl-2-oxo-1,2-dihydro-3-pyridinyl)methyl]-6-(2,4-dioxo-1,2,3,4-tetrahydro-5-pyrimidinyl)-1-(1-methylethyl)-1H-pyrazolo[3,4-b]pyridine-4-carboxamide], with 198 nM.

For the molecule `Cc1cc(C)c(CNC(=O)c2cc(-c3ccnc(N)c3)nc3c2cnn3C(C)C)c(=O)[nH]1` [Ex 49, 6-(2-Amino-4-pyridinyl)-N-[(4,6-dimethyl-2-oxo-1,2-dihydro-3-pyridinyl)methyl]-1-(1-methylethyl)-1H-pyrazolo[3,4-b]pyridine-4-carboxamide], the IC50 turned out to be 115 nM.

On to `Cc1cc(C)c(CNC(=O)c2cc(-c3ccc(S(N)(=O)=O)cc3)nc3c2cnn3C(C)C)c(=O)[nH]1` [Ex 50, 6-[4-(Aminosulfonyl)phenyl]-N-[(4,6-dimethyl-2-oxo-1,2-dihydro-3-pyridinyl)methyl]-1-(1-methylethyl)-1H-pyrazolo[3,4-b]pyridine-4-carboxamide], for which the IC50 was 81 nM. Consider `Cc1cc(C)c(CNC(=O)c2cc(-c3ccc(NS(C)(=O)=O)cc3)nc3c2cnn3C(C)C)c(=O)[nH]1` [Ex 51, N-[(4,6-Dimethyl-2-oxo-1,2-dihydro-3-pyridinyl)methyl]-1-(1-methylethyl)-6-{4-[(methylsulfonyl]amino]phenyl}-1H-pyrazolo[3,4-b]pyridine-4-carboxamide], for which the IC50 is 161 nM. Take `Cc1cc(C)c(CNC(=O)c2cc(NC3CCNCC3)nc3c2cnn3C(C)C)c(=O)[nH]1` [Ex 53, N-[(4,6-Dimethyl-2-oxo-1,2-dihydro-3-pyridinyl)methyl]-1-(1-methylethyl)-6-(4-piperidinylamino)-1H-pyrazolo[3,4-b]pyridine-4-carboxamide]: the IC50 was found to be 436 nM. For `Cc1cc(C)c(CNC(=O)c2cc(NC3CCOCC3)nc3c2cnn3C(C)C)c(=O)[nH]1` [Ex 54, N-[(4,6-Dimethyl-2-oxo-1,2-dihydro-3-pyridinyl)methyl]-1-(1-methylethyl)-6-(tetrahydro-2H-pyran-4-ylamino)-1H-pyrazolo[3,4-b]pyridine-4-carboxamide], the concentration for half-maximal inhibition (IC50) is 514 nM. Then `Cc1cc(C)c(CNC(=O)c2cc(NCc3ccncc3)nc3c2cnn3C(C)C)c(=O)[nH]1` [Ex 55, N-[(4,6-Dimethyl-2-oxo-1,2-dihydro-3-pyridinyl)methyl]-1-(1-methylethyl)-6-[(4-pyridinylmethyl)amino]-1H-pyrazolo[3,4-b]pyridine-4-carboxamide], with 260 nM; and `Cc1cc(C)c(CNC(=O)c2cc(NCCN(C)C)nc3c2cnn3C(C)C)c(=O)[nH]1` [Ex 56, 6-{[2-(Dimethylamino)ethyl]amino}-N-[(4,6-dimethyl-2-oxo-1,2-dihydro-3-pyridinyl)methyl]-1-(1-methylethyl)-1H-pyrazolo[3,4-b]pyridine-4-carboxamide], with 2110 nM; and `Cc1cc(C)c(CNC(=O)c2cc(NCCO)nc3c2cnn3C(C)C)c(=O)[nH]1` [Ex 57, N-[(4,6-Dimethyl-2-oxo-1,2-dihydro-3-pyridinyl)methyl]-6-[(2-hydroxyethyl)amino]-1-(1-methylethyl)-1H-pyrazolo[3,4-b]pyridine-4-carboxamide], with 784 nM.
